{"source": "patent US20240383923A1", "about": "“HETEROARYL DERIVATIVE AND USE THEREOF” (VORONOI INC., priority 2022, published 2024)", "data": [{"test_system": "BT-474 cancer cells", "assay": "Inhibition of BT-474 cell proliferation (CellTiter-Glo)", "format": "cell-based", "conditions": "Homo sapiens, BT-474 cells, 120 hours", "protocol": "BT-474 cancer cells were cultured by using RPMI-1640 medium containing 20% FBS. The BT-474 cancer cells were seeded to a white clear bottom 96 well plate (Corning) at 5,000 cells per well 48 hours before the BT-474 cancer cells were treated with Example Compounds. Example Compounds were diluted in dimethylsulfoxide (3-fold diluted, total 11 concentrations) and 1 μL each was injected so that the final concentration was 0.2 nM to 10 μM. For the measurement of living cells, the cells were stored at room temperature for 10 minutes using the CellTiter-Glo cell viability reagent (Promega) after a predetermined time (120 hours) after the treatment of Example Compounds, and then the luminescence intensity was measured using a reader (SynergyNeo, Biotek). Each test was repeated three times.\nThe result value was calculated as a cell growth rate (%) compared to a control group. Graphs were plotted and GI50 values were calculated using the GraphPad Prism version 8.0 program, and the results are shown in Table 18 below.", "units": {"GI50": "µM"}, "values": [{"smiles": "COc1cc2ncnc(Nc3cc(F)c(Oc4ccn5ncnc5c4)cc3OC)c2cc1NC(=O)/C(F)=C\\[C@H]1CCCN1C", "note": "[Example 49, (R,E)-N-(4-((4-([1,2,4]triazolo[1,5-a]pyridin-7-yloxy)-5-fluoro-2-methoxyphenyl)amino)-7-methoxyquinazolin-6-yl)-2-fluoro-3-(1-methylpyrrolidin-2-yl)acrylamide]", "GI50": "≤ 0.05"}, {"smiles": "C=C(C(=O)Nc1cc2c(Nc3cc(C)c(Oc4ccn5ncnc5c4)cc3OC)ncnc2cc1OC)n1cccn1", "note": "[Example 147, N-(4-((4-([1,2,4]triazolo[1,5-a]pyridin-7-yloxy)-2-methoxy-5-methylphenyl)amino)-7-methoxyquinazolin-6-yl)-2-(1H-pyrazol-1-yl)acrylamide]", "GI50": "0.1 to 0.5"}, {"smiles": "[2H]C([2H])([2H])Oc1cc(Oc2ccn3ncnc3c2)c(F)cc1Nc1ncnc2cc(OC)c(NC(=O)/C(F)=C\\[C@H]3CCCN3C)cc12", "note": "[Example 152, (R,E)-N-(4-((4-([1,2,4]triazolo[1,5-a]pyridin-7-yloxy)-5-fluoro-2-(methoxy-d3)phenyl)amino)-7-methoxyquinazolin-6-yl)-2-fluoro-3-(1-methylpyrrolidin-2-yl)acrylamide]", "GI50": "≤ 0.05"}, {"smiles": "[2H]C([2H])([2H])Oc1cc(Oc2ccn3ncnc3c2)c(C)cc1Nc1ncnc2cc(OC)c(NC(=O)/C(F)=C/[C@H]3CCCN3C)cc12", "note": "[Example 149, (R,Z)—N-(4-((4-([1,2,4]triazolo[1,5-a]pyridin-7-yloxy)-2-(methoxy-d3)-5-methylphenyl)amino)-7-methoxyquinazolin-6-yl)-2-fluoro-3-(1-methylpyrrolidin-2-yl)acrylamide]", "GI50": "≤ 0.05"}, {"smiles": "CCOc1cc2ncnc(Nc3cc(C)c(Oc4ccn5ncnc5c4)cc3OC)c2cc1NC(=O)/C(F)=C/[C@H]1CCCN1C", "note": "[Example 120, (R,Z)—N-(4-((4-([1,2,4]triazolo[1,5-a]pyridin-7-yloxy)-2-methoxy-5-methylphenyl)amino)-7-ethoxyquinazolin-6-yl)-2-fluoro-3-(1-methylpyrrolidin-2-yl)acrylamide]", "GI50": "≤ 0.05"}, {"smiles": "COc1cc(Oc2ccn3ncnc3c2)c(C)cc1Nc1ncnc2cc(F)c(NC(=O)/C(F)=C/[C@H]3CCCN3C)cc12", "note": "[Example 103, (R,Z)—N-(4-((4-([1,2,4]triazolo[1,5-a]pyridin-7-yloxy)-2-methoxy-5-methylphenyl)amino)-7-fluoroquinazolin-6-yl)-2-fluoro-3-(1-methylpyrrolidin-2-yl)acrylamide]", "GI50": "≤ 0.05"}, {"smiles": "COc1cc2ncnc(Nc3cc(C)c(Oc4ccc(C(=O)N(C)C)cc4)cc3OC)c2cc1NC(=O)/C(F)=C/[C@H]1CCCN1C", "note": "[Example 125, (R,Z)-4-(4-((6-(2-fluoro-3-(1-methylpyrrolidin-2-yl)acrylamido)-7-methoxyquinazolin-4-yl)amino)-5-methoxy-2-methylphenoxy)-N,N-dimethylbenzamide]", "GI50": "0.05 to 0.1"}, {"smiles": "C=CC(=O)Nc1cc2c(Nc3cc(C)c(Oc4ccn5ncnc5c4)cc3OC)ncnc2cc1N1CCOCC1", "note": "[Example 23, N-(4-((4-([1,2,4]triazolo[1,5-a]pyridin-7-yloxy)-2-methoxy-5-methylphenyl)amino)-7-morpholinoquinazolin-6-yl)acrylamide]", "GI50": "> 0.5"}, {"smiles": "[2H]C([2H])([2H])Oc1cc(Oc2ccn3ncnc3c2)c(C)cc1Nc1ncnc2cc(OC)c(NC(=O)/C=C/[C@H]3CCCN3C)cc12", "note": "[Example 148, (R,E)-N-(4-((4-([1,2,4]triazolo[1,5-a]pyridin-7-yloxy)-2-(methoxy-d3)-5-methylphenyl)amino)-7-methoxyquinazolin-6-yl)-3-(1-methylpyrrolidin-2-yl)acrylamide]", "GI50": "≤ 0.05"}, {"smiles": "COc1cc(Oc2ccn3ncnc3c2)c(C)cc1Nc1ncnc2cc(N3CC(F)(F)C3)c(NC(=O)/C(F)=C/[C@H]3CCCN3C)cc12", "note": "[Example 114, (R,Z)—N-(4-((4-([1,2,4]triazolo[1,5-a]pyridin-7-yloxy)-2-methoxy-5-methylphenyl)amino)-7-(3,3-difluoroazetidin-1-yl)quinazolin-6-yl)-2-fluoro-3-(1-methylpyrrolidin-2-yl)acrylamide]", "GI50": "≤ 0.05"}, {"smiles": "COc1cc2ncnc(Nc3cc(C)c(Oc4ccn5ncnc5c4)cc3OC3CC3)c2cc1NC(=O)/C(F)=C\\[C@H]1CCCN1C", "note": "[Example 106, (R,E)-N-(4-((4-([1,2,4]triazolo[1,5-a]pyridin-7-yloxy)-2-cyclopropoxy-5-methylphenyl)amino)-7-methoxyquinazolin-6-yl)-2-fluoro-3-(1-methylpyrrolidin-2-yl)acrylamide]", "GI50": "≤ 0.05"}, {"smiles": "COc1cc2ncnc(Nc3cc(N(C)C)c(Oc4ccn5ncnc5c4)cc3OC)c2cc1NC(=O)/C(F)=C\\[C@H]1CCCN1C", "note": "[Example 127, (R,E)-N-(4-((4-([1,2,4]triazolo[1,5-a]pyridin-7-yloxy)-5-(dimethylamino)-2-methoxyphenyl)amino)-7-methoxyquinazolin-6-yl)-2-fluoro-3-(1-methylpyrrolidin-2-yl)acrylamide]", "GI50": "0.1 to 0.5"}, {"smiles": "COc1cc(Oc2ccn3ncnc3c2)c(C)cc1Nc1ncnc2cc(OC3CCOC3)c(NC(=O)/C(F)=C/[C@H]3CCCN3C)cc12", "note": "(stereo partly drawn) [Example 97, (Z)—N-(4-((4-([1,2,4]triazolo[1,5-a]pyridin-7-yloxy)-2-methoxy-5-methylphenyl)amino)-7-((tetrahydrofuran-3-yl)oxy)quinazolin-6-yl)-2-fluoro-3-((R)-1-methylpyrrolidin-2-yl)acrylamide]", "GI50": "≤ 0.05"}, {"smiles": "[2H]C([2H])([2H])N1CCC[C@@H]1/C=C(\\F)C(=O)Nc1cc2c(Nc3cc(F)c(Oc4ccn5ncnc5c4)cc3OC)ncnc2cc1OC", "note": "[Example 155, (R,Z)—N-(4-((4-([1,2,4]triazolo[1,5-a]pyridin-7-yloxy)-5-fluoro-2-methoxyphenyl)amino)-7-methoxyquinazolin-6-yl)-2-fluoro-3-(1-(methyl-d3)pyrrolidin-2-yl)acrylamide]", "GI50": "≤ 0.05"}, {"smiles": "COc1cc2ncnc(Nc3cc(C)c(Oc4cccc(NC(C)=O)c4)cc3OC)c2cc1NC(=O)/C(F)=C/[C@H]1CCCN1C", "note": "[Example 133, (R,Z)—N-(4-((4-(3-acetamidophenoxy)-2-methoxy-5-methylphenyl)amino)-7-methoxyquinazolin-6-yl)-2-fluoro-3-(1-methylpyrrolidin-2-yl)acrylamide]", "GI50": "≤ 0.05"}, {"smiles": "COc1cc2ncnc(Nc3cc(C)c(Oc4ccc5ncnn5c4)cc3OC)c2cc1NC(=O)/C(F)=C/[C@H]1CCCN1C", "note": "[Example 73, (R,Z)—N-(4-((4-([1,2,4]triazolo[1,5-a]pyridin-6-yloxy)-2-methoxy-5-methylphenyl)amino)-7-methoxyquinazolin-6-yl)-2-fluoro-3-(1-methylpyrrolidin-2-yl)acrylamide]", "GI50": "≤ 0.05"}, {"smiles": "COc1cc2ncnc(Nc3cc(C)c(Oc4ccn5ncnc5c4)cc3OC)c2cc1NC(=O)/C=C/CN1CC2(COC2)C1", "note": "[Example 40, (E)-N-(4-((4-([1,2,4]triazolo[1,5-a]pyridin-7-yloxy)-2-methoxy-5-methylphenyl)amino)-7-methoxyquinazolin-6-yl)-4-(2-oxa-6-azaspiro[3.3]heptan-6-yl)but-2-enamide]", "GI50": "≤ 0.05"}, {"smiles": "COc1cc2ncnc(Nc3cc(C)c(Oc4ccn5ncnc5c4)cc3OC)c2cc1NC(=O)/C(F)=C/[C@H]1CCCCN1C", "note": "[Example 131, (R,Z)—N-(4-((4-([1,2,4]triazolo[1,5-a]pyridin-7-yloxy)-2-methoxy-5-methylphenyl)amino)-7-methoxyquinazolin-6-yl)-2-fluoro-3-(1-methylpiperidin-2-yl)acrylamide]", "GI50": "≤ 0.05"}, {"smiles": "COc1cc2ncnc(Nc3cc(C)c(Oc4ccc5ccccc5c4)cc3OC)c2cc1NC(=O)/C(F)=C/[C@H]1CCCN1C", "note": "[Example 64, (R,Z)-2-fluoro-N-(7-methoxy-4-((2-methoxy-5-methyl-4-(naphthalen-2-yloxy)phenyl)amino)quinazolin-6-yl)-3-(1-methylpyrrolidin-2-yl)acrylamide]", "GI50": "≤ 0.05"}, {"smiles": "COc1cc2ncnc(Nc3cc(C)c(Oc4ccc5c(c4)NC(O)O5)cc3OC)c2cc1NC(=O)/C(F)=C/[C@H]1CCCN1C", "note": "(stereo partly drawn) [Example 70, (Z)-2-fluoro-N-(4-((4-((2-hydroxy-2,3-dihydrobenzo[d]oxazol-5-yl)oxy)-2-methoxy-5-methylphenyl)amino)-7-methoxyquinazolin-6-yl)-3-((R)-1-methylpyrrolidin-2-yl)acrylamide]", "GI50": "≤ 0.05"}, {"smiles": "COc1cc2ncnc(Nc3cc(C)c(Oc4cnc5ccnn5c4)cc3OC)c2cc1NC(=O)/C(F)=C/[C@H]1CCCN1C", "note": "[Example 80, (R,Z)-2-fluoro-N-(7-methoxy-4-((2-methoxy-5-methyl-4-(pyrazolo[1,5-a]pyrimidin-6-yloxy)phenyl)amino)quinazolin-6-yl)-3-(1-methylpyrrolidin-2-yl)acrylamide]", "GI50": "≤ 0.05"}, {"smiles": "COc1cc2ncnc(Nc3cc(C)c(Oc4cnc5ccnn5c4)cc3OC)c2cc1NC(=O)/C(F)=C\\[C@H]1CCCN1C", "note": "[Example 79, (R,E)-2-fluoro-N-(7-methoxy-4-((2-methoxy-5-methyl-4-(pyrazolo[1,5-a]pyrimidin-6-yloxy)phenyl)amino)quinazolin-6-yl)-3-(1-methylpyrrolidin-2-yl)acrylamide]", "GI50": "≤ 0.05"}, {"smiles": "COc1cc2ncnc(Nc3cc(C)c(Oc4ccc5c(c4)ncn5C)cc3OC)c2cc1NC(=O)/C(F)=C\\[C@H]1CCCN1C", "note": "[Example 57, (R,E)-2-fluoro-N-(7-methoxy-4-((2-methoxy-5-methyl-4-((1-methyl-1H-benzo[d]imidazol-5-yl)oxy)phenyl)amino)quinazolin-6-yl)-3-(1-methylpyrrolidin-2-yl)acrylamide]", "GI50": "≤ 0.05"}, {"smiles": "COc1cc2ncnc(Nc3cc(C)c(Oc4ccc5c(c4)OCO5)cc3OC)c2cc1NC(=O)/C(F)=C\\[C@H]1CCCN1C", "note": "[Example 85, (R,E)-N-(4-((4-(benzo[d][1,3]dioxol-5-yloxy)-2-methoxy-5-methylphenyl)amino)-7-methoxyquinazolin-6-yl)-2-fluoro-3-(1-methylpyrrolidin-2-yl)acrylamide]", "GI50": "≤ 0.05"}]}]}
